Assays:
[1] = molecular target: PIK3CA (human) (UniProt P42336); test: Inhibition of PIK3CA Kinase Activity
[2] = molecular target: PIK3CD (Human) (UniProt O00329); test: Inhibition of PIK3CD Kinase Activity
[3] = molecular target: PIK3CB (Human) (UniProt P42338); test: Inhibition of PIK3CB Kinase Activity
[4] = molecular target: PIK3CG (human) (UniProt P48736); test: Inhibition of PIK3CG Kinase Activity

Measured: IC50

PIK3CB (Human), sequence (P42338 whole entry, looked up): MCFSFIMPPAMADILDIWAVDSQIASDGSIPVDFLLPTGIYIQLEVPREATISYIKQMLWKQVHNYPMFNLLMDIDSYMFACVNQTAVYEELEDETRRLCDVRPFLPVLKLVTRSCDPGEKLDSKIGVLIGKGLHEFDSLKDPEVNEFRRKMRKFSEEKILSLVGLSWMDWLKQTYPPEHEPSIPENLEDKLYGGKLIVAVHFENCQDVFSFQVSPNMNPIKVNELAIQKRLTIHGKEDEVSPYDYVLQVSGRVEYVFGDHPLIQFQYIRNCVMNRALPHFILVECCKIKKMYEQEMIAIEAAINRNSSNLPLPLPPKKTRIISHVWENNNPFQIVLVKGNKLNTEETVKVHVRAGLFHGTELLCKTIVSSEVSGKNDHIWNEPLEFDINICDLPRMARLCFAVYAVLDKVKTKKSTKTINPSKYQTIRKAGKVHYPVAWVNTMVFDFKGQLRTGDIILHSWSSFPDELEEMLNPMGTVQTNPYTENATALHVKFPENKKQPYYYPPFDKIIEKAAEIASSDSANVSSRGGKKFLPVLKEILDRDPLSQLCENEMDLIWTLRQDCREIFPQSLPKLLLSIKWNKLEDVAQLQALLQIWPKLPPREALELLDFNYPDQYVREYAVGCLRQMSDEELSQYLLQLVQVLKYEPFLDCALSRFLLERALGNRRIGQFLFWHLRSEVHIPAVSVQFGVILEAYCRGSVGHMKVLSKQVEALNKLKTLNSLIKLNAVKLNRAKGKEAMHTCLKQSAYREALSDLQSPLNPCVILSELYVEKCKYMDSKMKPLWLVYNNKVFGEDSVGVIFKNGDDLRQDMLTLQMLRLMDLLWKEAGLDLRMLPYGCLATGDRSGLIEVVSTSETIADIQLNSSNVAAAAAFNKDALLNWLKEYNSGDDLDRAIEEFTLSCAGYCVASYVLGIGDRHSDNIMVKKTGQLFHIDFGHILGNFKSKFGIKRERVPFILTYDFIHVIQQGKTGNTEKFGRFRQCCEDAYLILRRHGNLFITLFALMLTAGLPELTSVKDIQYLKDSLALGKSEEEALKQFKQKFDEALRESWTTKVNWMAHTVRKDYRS
PIK3CG (human), sequence (P48736 whole entry, looked up): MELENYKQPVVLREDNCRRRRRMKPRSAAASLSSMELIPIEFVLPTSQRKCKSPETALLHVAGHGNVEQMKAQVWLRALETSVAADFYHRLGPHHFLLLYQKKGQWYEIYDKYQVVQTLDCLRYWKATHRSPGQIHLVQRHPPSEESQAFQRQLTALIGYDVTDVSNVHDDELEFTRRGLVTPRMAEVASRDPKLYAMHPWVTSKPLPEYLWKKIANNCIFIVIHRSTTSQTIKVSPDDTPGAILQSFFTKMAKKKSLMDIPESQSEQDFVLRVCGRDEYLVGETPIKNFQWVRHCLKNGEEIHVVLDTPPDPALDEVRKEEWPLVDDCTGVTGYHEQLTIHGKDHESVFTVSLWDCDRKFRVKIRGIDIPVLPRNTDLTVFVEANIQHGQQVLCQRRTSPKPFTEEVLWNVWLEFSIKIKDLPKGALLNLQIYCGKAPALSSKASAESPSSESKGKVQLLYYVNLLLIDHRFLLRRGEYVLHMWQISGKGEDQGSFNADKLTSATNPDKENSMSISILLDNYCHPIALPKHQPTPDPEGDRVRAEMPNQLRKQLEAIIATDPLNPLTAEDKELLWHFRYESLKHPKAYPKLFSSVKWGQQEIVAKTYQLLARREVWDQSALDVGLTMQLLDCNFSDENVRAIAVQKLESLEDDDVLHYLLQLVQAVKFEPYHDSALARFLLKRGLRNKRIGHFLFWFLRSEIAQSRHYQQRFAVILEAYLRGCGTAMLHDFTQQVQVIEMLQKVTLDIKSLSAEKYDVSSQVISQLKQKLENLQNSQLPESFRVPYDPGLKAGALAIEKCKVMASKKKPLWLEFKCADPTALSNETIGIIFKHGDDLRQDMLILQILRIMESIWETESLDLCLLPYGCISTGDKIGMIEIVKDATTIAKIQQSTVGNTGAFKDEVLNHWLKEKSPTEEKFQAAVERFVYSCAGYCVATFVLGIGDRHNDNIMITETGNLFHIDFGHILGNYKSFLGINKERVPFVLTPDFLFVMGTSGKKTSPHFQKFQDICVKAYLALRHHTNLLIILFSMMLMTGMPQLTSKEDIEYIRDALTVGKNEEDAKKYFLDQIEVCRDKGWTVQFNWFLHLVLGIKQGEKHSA
PIK3CD (Human), sequence (O00329 whole entry, looked up): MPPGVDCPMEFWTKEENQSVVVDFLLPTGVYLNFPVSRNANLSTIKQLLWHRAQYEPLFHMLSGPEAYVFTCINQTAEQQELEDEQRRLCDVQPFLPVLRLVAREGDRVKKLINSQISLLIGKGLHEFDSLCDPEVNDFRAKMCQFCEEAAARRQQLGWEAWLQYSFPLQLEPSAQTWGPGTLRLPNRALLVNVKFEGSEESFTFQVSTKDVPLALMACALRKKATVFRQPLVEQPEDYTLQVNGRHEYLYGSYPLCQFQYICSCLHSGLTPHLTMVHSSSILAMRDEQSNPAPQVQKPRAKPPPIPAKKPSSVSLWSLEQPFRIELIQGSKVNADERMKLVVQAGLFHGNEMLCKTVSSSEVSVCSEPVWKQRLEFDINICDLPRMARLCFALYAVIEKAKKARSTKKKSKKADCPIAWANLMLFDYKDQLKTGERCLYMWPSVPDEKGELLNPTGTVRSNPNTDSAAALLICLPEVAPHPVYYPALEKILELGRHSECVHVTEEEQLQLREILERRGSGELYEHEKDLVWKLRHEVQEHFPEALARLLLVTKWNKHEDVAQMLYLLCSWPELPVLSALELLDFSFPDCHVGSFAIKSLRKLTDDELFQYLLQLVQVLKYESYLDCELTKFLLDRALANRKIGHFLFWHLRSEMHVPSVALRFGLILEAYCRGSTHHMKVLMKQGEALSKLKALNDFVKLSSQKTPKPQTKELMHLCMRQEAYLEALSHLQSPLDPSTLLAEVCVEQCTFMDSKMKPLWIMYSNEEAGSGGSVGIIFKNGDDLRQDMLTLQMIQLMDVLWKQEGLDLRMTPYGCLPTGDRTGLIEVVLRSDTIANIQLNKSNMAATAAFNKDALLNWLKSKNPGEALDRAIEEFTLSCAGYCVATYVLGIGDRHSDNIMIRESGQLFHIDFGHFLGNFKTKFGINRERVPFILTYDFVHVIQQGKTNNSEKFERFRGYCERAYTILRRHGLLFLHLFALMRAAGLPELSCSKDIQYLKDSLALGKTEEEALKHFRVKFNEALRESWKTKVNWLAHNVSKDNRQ
PIK3CA (human), sequence (P42336 whole entry, looked up): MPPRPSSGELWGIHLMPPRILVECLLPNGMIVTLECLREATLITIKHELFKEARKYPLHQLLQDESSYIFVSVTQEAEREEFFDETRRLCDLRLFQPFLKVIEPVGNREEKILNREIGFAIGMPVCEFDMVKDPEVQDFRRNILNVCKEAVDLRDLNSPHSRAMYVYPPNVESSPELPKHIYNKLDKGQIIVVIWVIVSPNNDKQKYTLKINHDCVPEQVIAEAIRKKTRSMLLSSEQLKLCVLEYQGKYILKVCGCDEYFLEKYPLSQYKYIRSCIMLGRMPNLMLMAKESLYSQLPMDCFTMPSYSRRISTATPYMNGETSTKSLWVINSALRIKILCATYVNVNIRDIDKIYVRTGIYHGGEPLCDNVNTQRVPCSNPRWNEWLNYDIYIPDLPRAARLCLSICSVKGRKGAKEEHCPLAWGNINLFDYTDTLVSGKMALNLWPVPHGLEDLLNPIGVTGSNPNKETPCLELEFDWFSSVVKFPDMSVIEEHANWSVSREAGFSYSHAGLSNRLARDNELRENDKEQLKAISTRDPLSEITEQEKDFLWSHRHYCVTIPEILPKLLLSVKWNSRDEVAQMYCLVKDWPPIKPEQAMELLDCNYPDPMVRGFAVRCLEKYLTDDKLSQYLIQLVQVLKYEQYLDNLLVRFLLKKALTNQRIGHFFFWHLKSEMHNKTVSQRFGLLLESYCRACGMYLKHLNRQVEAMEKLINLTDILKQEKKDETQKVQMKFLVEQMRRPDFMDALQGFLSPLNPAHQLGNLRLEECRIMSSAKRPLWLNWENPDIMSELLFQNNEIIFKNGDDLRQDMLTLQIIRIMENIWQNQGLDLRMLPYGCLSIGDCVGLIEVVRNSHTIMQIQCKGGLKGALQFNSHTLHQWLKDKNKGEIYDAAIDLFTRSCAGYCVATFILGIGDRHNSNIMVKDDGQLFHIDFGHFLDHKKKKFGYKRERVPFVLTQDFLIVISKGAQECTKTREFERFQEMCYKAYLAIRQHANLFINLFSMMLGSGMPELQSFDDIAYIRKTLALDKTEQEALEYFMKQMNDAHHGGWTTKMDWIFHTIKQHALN

CC1(C)CC(=O)c2sc(N3CCOC[C@@H]3Cc3cccc(-c4ccccc4CO)c3)nc2C1
≤ 50 µM: all assays above

Cc1cccc(-c2cccc(C[C@H]3COCCN3c3nc4c(s3)C(=O)CC(C)(C)C4)c2)c1C
≤ 50 µM: all assays above

CC1(C)CC(=O)c2sc(N3CCOC[C@@H]3Cc3cccc(-c4cn(S(=O)(=O)c5ccccc5)c5ccccc45)c3)nc2C1
≤ 50 µM: all assays above

COc1cccc(-c2cccc(C[C@H]3COCCN3c3nc4c(s3)C(=O)CC(C)(C)C4)c2)c1
≤ 50 µM: all assays above

CC1(C)CC(=O)c2sc(N3CCOC[C@@H]3Cc3cccc(-c4cc(F)cc(F)c4)c3)nc2C1
≤ 50 µM: all assays above

CC1(C)CC(=O)c2sc(N3CCOCC3Cc3cccc4cccnc34)nc2C1 (stereo unspecified)
≤ 50 µM: all assays above

O=C1CC(c2ccccc2)Cc2nc(N3CCOCC3)sc21 (stereo unspecified)
≤ 50 µM: all assays above

CC1(C)CC(=O)c2sc(nc2C1)N3CCOCC3CN4=CCCc5ccccc45
≤ 50 µM: all assays above

CCOc1cccc(-c2cccc(C[C@H]3COCCN3c3nc4c(s3)C(=O)CC(C)(C)C4)c2)c1
≤ 50 µM: all assays above

CC1(C)CC(=O)c2sc(N3CCOC[C@@H]3Cc3cccc(-c4ccc(Br)cc4)c3)nc2C1
≤ 50 µM: all assays above

CC1(C)CC(=O)c2sc(N3CCOc4ccccc43)nc2C1
≤ 50 µM: all assays above

CC1(C)CC(=O)c2sc(N3CCOC[C@@H]3Cc3cccc(-c4ccc(Cl)nc4)c3)nc2C1
≤ 50 µM: all assays above

CC1(C)CC(=O)c2sc(N3CCOCC3Cn3ccc4ccccc43)nc2C1 (stereo unspecified)
≤ 50 µM: all assays above

O=C1CC(c2ccco2)Cc2nc(N3CCOCC3)sc21 (stereo unspecified)
≤ 50 µM: all assays above

O=C1CCCc2nc(N3CCOCC3Cc3cc4ccccc4s3)sc21 (stereo unspecified)
≤ 50 µM: all assays above

CC1CCc2nc(N3CCOCC3)sc2C(=O)N1 (stereo unspecified)
≤ 50 µM: all assays above

CC1(C)CC(=NN)c2sc(N3CCOCC3)nc2C1
≤ 50 µM: all assays above

CC(=O)c1cccc(-c2cccc(C[C@H]3COCCN3c3nc4c(s3)C(=O)CC(C)(C)C4)c2)c1
≤ 50 µM: all assays above

CC1(C)CC(=O)c2sc(N3CCOC(CC(=O)NCc4csc5ccccc45)C3)nc2C1 (stereo unspecified)
≤ 50 µM: all assays above

ON=C1CCCc2nc(N3CCOCC3)sc21
≤ 50 µM: all assays above

Cc1cccc(-c2cccc(C[C@H]3COCCN3c3nc4c(s3)C(=O)CC(C)(C)C4)c2)c1
≤ 50 µM: all assays above

CC1(C)CC(=O)c2sc(N3CCOC[C@@H]3CSc3ccccc3)nc2C1
≤ 50 µM: all assays above

CC1(C)CC(=O)c2sc(N3CCOCC3CCc3ccccc3)nc2C1 (stereo unspecified)
≤ 50 µM: all assays above

CC1(C)CC(=O)c2sc(N3CCOC[C@@H]3Cc3cccc(-c4ccccc4F)c3)nc2C1
≤ 50 µM: all assays above

CC1(C)CC(=O)c2sc(N3CCOC[C@@H]3Cn3cnc4ccccc43)nc2C1
≤ 50 µM: all assays above

CC1(C)CNC(=S)c2sc(N3CCOC[C@@H]3Cc3c[nH]c4ccccc34)nc2C1
≤ 50 µM: all assays above

CC1(C)CC(=O)c2sc(N3CCOC[C@@H]3Cc3cccc(-c4cccc5ccccc45)c3)nc2C1
≤ 50 µM: all assays above

CC1(C)CC(=O)c2sc(N3CCOCC3Cc3ccc(N4CCOCC4)cc3)nc2C1 (stereo unspecified)
≤ 50 µM: all assays above

CC1(C)CC(=O)c2sc(N3CCOC[C@@H]3Cc3cccc(-c4cc5ccccc5s4)c3)nc2C1
≤ 50 µM: all assays above

CC1(C)CC(=O)c2sc(N3CCOC[C@@H]3Cc3cccc(-c4ccc(F)cc4)c3)nc2C1
≤ 50 µM: all assays above

Cc1ccc2[nH]cc(CC3COCCN3c3nc4c(s3)C(=S)CC(C)(C)C4)c2c1 (stereo unspecified)
≤ 50 µM: all assays above

CC1(C)CC(=O)c2sc(N3CCOCC3Cc3c[nH]c4ncccc34)nc2C1 (stereo unspecified)
≤ 50 µM: all assays above

CC1(C)CCc2nc(N3CCOCC3)sc2C1=NO
≤ 50 µM: all assays above

CC1(C)CC(=O)c2sc(N3CCO[C@@H]4Cc5ccccc5[C@@H]43)nc2C1
≤ 50 µM: all assays above

CC1CCc2nc(N3CCOCC3)sc2C1=NO (stereo unspecified)
≤ 50 µM: all assays above

CC1(C)CC(=O)c2sc(N3CCOC[C@@H]3Cc3cccc(-c4cccc(C(F)(F)F)c4)c3)nc2C1
≤ 50 µM: all assays above

CC1(C)CC(=O)c2sc(N3CCOC[C@@H]3Cc3cccc(-c4ccc(C(N)=O)cc4)c3)nc2C1
≤ 50 µM: all assays above

CC(=O)c1ccc(-c2cccc(C[C@H]3COCCN3c3nc4c(s3)C(=O)CC(C)(C)C4)c2)cc1
≤ 50 µM: all assays above

CC1(C)CNC(=O)c2sc(N3CCOCC3Cc3cccc4ncccc34)nc2C1 (stereo unspecified)
≤ 50 µM: all assays above

CC1(C)CC(=O)c2sc(N3CCOC[C@@H]3Cc3cccc(-c4ccc5c(c4)OCO5)c3)nc2C1
≤ 50 µM: all assays above

COc1ccc(C2CC(=O)c3sc(N4CCOCC4)nc3C2)cc1 (stereo unspecified)
≤ 50 µM: all assays above

CC1CCc2nc(N3CCOCC3)sc2C1=O (stereo unspecified)
≤ 50 µM: all assays above

Cc1ccc2c(c1)CCCN2C(=O)C1COCCN1c1nc2c(s1)C(=O)CC(C)(C)C2 (stereo unspecified)
≤ 50 µM: all assays above

CC(=O)n1cc(C[C@H]2COCCN2c2nc3c(s2)C(=O)CC(C)(C)C3)c2ccccc21
≤ 50 µM: all assays above

Source: the Kinase Knowledgebase extract (Sharma et al. 2016)
